Results: US10942183B2, “Methods of detecting progesterone receptor and of detecting an expression level” (REGENTS OF THE UNIVERSITY OF MINNESOTA, priority 2017, dated 2021)

Tests used:
[1] = tested on: PR Ser294 phosphorylation; assay: PR Ser294 phosphorylation in T47D cells (Western blotting, immunofluorescence); assay type: cell-based, human; conditions: T47D cells expressing WT or KR PR; for PR Ser294 phosphorylation, ligand alone: 1 hour; for PR Ser294 phosphorylation in the presence of progesterone (co-treatment): progesterone plus antiprogestin
Procedure: T47D human breast cancer cell lines engineered to stably express PR variants (null, WT, K388R, or S294A) were previously described (Knutson et al. Breast Cancer Res 2012, 14:R9). T47D cells were maintained in complete minimal essential medium (cMEM) supplemented with 5% fetal bovine serum (FBS), 1% non-essential amino acids (NEAA), 1% penicillin/streptomycin, 6 ng/ml insulin (CellGro, Manassas, Va., USA, catalog #10-010-CV). T47D cells described above were engineered to also stably express RUNX2 shRNAs via the pLKO.1 knockdown expression vector system, which required 25 μg/ml puromycin for the vector. In various experiments, cells or explants were treated with E2, ICI 182 780, R5020, mifepristone, aglepristone, or onapristone (Arno Therapeutics, Inc., Flemington, N.J.).
Immunocytochemistry was performed on T47D cells expressing PR variants to measure total- and phospho-Ser294 PR levels. 500,000 cells were grown on coverslips in 6-well plates, starved in IMEM plus 5% charcoal stripped FBS, treated, and fixed with 4% paraformaldehyde for 20 min. The cells were permeabilized with 0.3% Triton-X100 before incubating with total-PR (clone Ab8, ThermoFisher Scientific, Waltham, Mass.) or custom phospho-Ser294-PR (clone 8508) antibodies. Cells were incubated with fluorescent secondary antibodies (Alexa Fluor 488) and DAPI mounting medium (Life Technologies, ThermoFisher Scientific, Waltham, Mass.) before visualizing on a Zeiss microscope with A4 and L5 filter cubes. Immunoblotting was performed as previously described (Daniel et al. Mol Endocrinol 2007, 21:2890-2906).
In addition, extensive luminal breast cancer heterogeneity may limit the ability to observe a subset of PR-driven breast cancers without patient selection. In this case, PR target gene expression may provide an accurate means of predicting which breast tumors are likely to be influenced by PR-driven biological pathways enacted by active phospho-Ser294 PRs. To probe changes in PR target gene expression in the presence or absence of commonly used PR ligands (R5020, RU486), including diverse antiprogestins (aglepristone, onapristone) currently in development for clinical use, the well characterized model system of T47D breast cancer cells, stably expressing either unmodified wild-type (WT) PR-B or a transcriptionally hyperactive form of deSUMOylated K388R PR-B (KR; this receptor faithfully mimics phosphorylated PR-B with regard to target gene selection) were used (Knutson et al. Pharmacology & therapeutics 2014, 142:114-125; Daniel et al. Mol Endocrinol 2007, 21:2890-2906). Whether the antiprogestins mifepristone (also called RU486), aglepristone, or onapristone alter PR Ser294 phosphorylation were tested in these T47D breast cancer models. Cells were treated for 1 hour with vehicle, progesterone, mifepristone, aglepristone, or onapristone and whole cell lysates were processed for Western blotting or immunofluorescence (IF) analysis (FIG. 4A, B). […] Greater loss of total KR PR protein was also apparent in the presence of progesterone and selected antiprogestins relative to liganded WT PR, consistent with increased turnover of deSUMOylated active receptors relative to intact WT PRs.

[2] = tested on: PR target gene expression; assay: Global gene expression analysis (Illumina HT-12v4) in T47D cells expressing WT or K388R PR-B; assay type: cell-based, human; conditions: for regulation of PR target genes in cells expressing KR PR: T47D KR PR
Procedure: For genome-wide microarray expression analysis, T47D cells expressing pIRES-neo3 empty vector, WT PR, or K388R PR were serum starved in modified improved minimum essential media (IMEM) (Gibco, ThermoFisher Scientific, Waltham, Mass.) for one day before treatment. Eight groups were treated with vehicle control, progesterone (10^−8 M), mifepristone (10^−7 M), aglepristone (10^−7 M), onapristone (10^−7 M), or combined treatment of progesterone+mifepristone, progesterone+aglepristone, or progesterone+onapristone for six hours before RNA extraction using a RNeasy kit (QIAgen). DNase I treated (QIAgen) RNA samples from triplicate experiments were prepared for expression analysis using the Illumina HT-12v4 bead chip platform according to standard protocols. Raw data from agonist-treated cells (progesterone or R5020) collected from two identically performed independent experiments (from this study and a previous study: GSE34148 (Knutson et al. Breast Cancer Res 2012, 14:R95)) was combined, normalized, and batch-corrected to ensure that gene expression values were informative across samples from separate experiments. Data were analyzed within multiple common R (R Core Team: R: A language and environment for statistical computing. R Foundation for Statistical Computing, Vienna, Austria 2015, [available on the world wide web at r-project.org/]) and Bioconductor (Gentleman et al. Genome Biol 2004, 5:R80) packages. Raw intensities were log 2 transformed and quantile normalized using lumi (Du et al. Bioinformatics 2008, 24:1547-1548), batch corrected using sva (Leek et al.: sva: Surrogate Variable Analysis. R package version 3.18.0.), and multiple probes for a single gene were collapsed using genefilter (Gentleman et al.: genefilter: genefilter: methods for filtering genes from high-throughput experiments. R package version 1.52.1). Differentially expressed genes (pairwise comparisons between all eight groups) were analyzed in limma (Smyth: Limma: linear models for microarray data. In: Bioinformatics and computational biology solutions using R and Bioconductor. edn.: Springer; 2005: 397-420), where empirical Bayes was used to better estimate the variance of the genes. Biological comparisons (for example, R5020/vehicle) were presented as log 2 fold change including the Benjamini and Hochberg (BH) adjusted P value (Benjamini et al. J Roy Stat Soc B Met 1995, 57:289-300) to account for multiple hypothesis testing. Expression data is available in the GEO database, accession: GSE94363.
Normalized gene expression data were filtered to isolate only high variance genes using the bioconductor package genefilter (Gentleman et al.: genefilter: genefilter: methods for filtering genes from high-throughput experiments. In., R package version 1.50.0 edn: R package version 1.50.0) using interquartile range cutoff value of 0.85. Non-negative matrix factorization (NMF) was performed within R using the NMF package version 0.20.5 (Gaujoux et al. BMC bioinformatics 2010, 11:367) where matrix factors were rank (2-10) and algorithm (brunet or snmf/r) optimized using the nmf function with parameters nrun=30 and seed=123456. […] Clustering and plots were performed in R (NMF package, a heat map function) using Euclidean distance and UPGMA (average) linkage.
PR ligand-mediated promoter selectivity remains understudied, especially in the context of antiprogestins and posttranslationally modified PR species. […]

Structure (SMILES): CC#C[C@]1(O)CC[C@H]2[C@@H]3CCC4=CC(=O)CCC4=C3[C@@H](c3ccc(N(C)C)cc3)C[C@@]21C [mifepristone]
- PR Ser294 phosphorylation, ligand alone [1]: stimulated robust PR Ser294 phosphorylation
- PR Ser294 phosphorylation in the presence of progesterone (co-treatment) [1]: also induced Ser294 phosphorylation
- regulation of PR target genes in cells expressing KR PR ([2]; antiprogestin 10^-7 M, 6 hours): substantially regulate multiple genes in cells expressing KR PR

Structure (SMILES): CC(=O)[C@H]1CC[C@H]2[C@@H]3CCC4=CC(=O)CC[C@]4(C)[C@H]3CC[C@]12C [progesterone]
- PR Ser294 phosphorylation, ligand alone [1]: stimulated PR Ser294 phosphorylation

Structure (SMILES): CN(C)c1ccc([C@H]2C[C@]3(C)[C@@H](CC[C@]3(O)CCCO)[C@@H]3CCC4=CC(=O)CCC4=C32)cc1 [onapristone]
- PR Ser294 phosphorylation, ligand alone [1]: had no effect on PR Ser294 phosphorylation
- PR Ser294 phosphorylation in the presence of progesterone (co-treatment) [1]: blocked Ser294 phosphorylation in the presence of progesterone
- regulation of PR target genes in cells expressing KR PR ([2]; antiprogestin 10^-7 M, 6 hours): does not substantially regulate PR target genes in either cell line
- regulation of PR target genes in cells expressing WT PR ([2]; T47D WT PR, antiprogestin 10^-7 M, 6 hours): does not substantially regulate PR target genes in either cell line
- PR transcriptional activity (hierarchical clustering of regulated genes) ([2]; T47D WT or KR PR, compared with PR-null cells): effectively inhibited PR (either WT or KR) transcriptional activity comparable to the level found in PR-null (control) cells
